Laboratory results: patent US20200181284A1, “EPIGENETIC INHIBITORS FOR SENSITIZING HEMATOLOGIC OR OTHER MALIGNANCIES TO GLUCOCORTICOID THERAPY” (UNIVERSITY OF SOUTHERN CALIFORNIA, priority 2017, published 2020)

How the values were obtained:
[1] = tested on: GR target genes in NALM6 cells; assay: RT-qPCR of GR target genes in NALM6 cells; type: cell-based, human; conditions: NALM6 cells, KDM inhibitor
Experimental: RNA was isolated using TRIzol (Invitrogen) according to the manufacturer's instructions. Reverse transcription reaction was performed using Superscript III (ThermoFisher) according to specifications with 1 μg of total RNA as template. Quantitative PCR amplification of the resulting cDNA was performed on a Roche LightCycler 480 using SYBR green I master mix (Roche). mRNA levels were normalized to the level of b-actin mRNA.
FIGS. 40A, 40B, 40C, 40D-1, 40D-2, 40D-3, and 40D-4 show Aurora kinase B inhibitors sensitizing NALM6 cells to GC-induced cell death. As shown in FIGS. 40A and 40B, NALM6 cells were treated with the indicated dex concentration in addition to 0.75 μM ZM447439 (FIG. 40A), 16 nM AZD2811 (FIG. 40B), or equivalent volume of vehicle DMSO for 72 h, and cell survival was measured by a fluorescence metabolic assay. In each condition, the value measured with dex was normalized to the fluorescence value measured with ethanol. Percentage of survival is shown as the mean±SEM of 4 independent experiments and p-values for individual dex concentrations were calculated using a paired t-test. *p≤0.05, **p≤0.01, * * *p≤0.001. F-test comparing the two curves: p≤0.001. Insets show the EC50s that were calculated as the concentration at which half the cells remained alive, compare to vehicle controls. Error bars depict the SEM of 4 independent experiments and p-values were calculated to compare AURKB inhibitor treatment to DMSO using a paired t-test ** p≤0.01, * * *p≤0.001. […] The indicated proteins were then examined by immunoblot. As shown in FIGS. 40D-1, 40D-2, 40D-3, and 40D-4, NALM6 cells pre-treated with AZD2811 (16 nM) or DMSO for 24 h, were then treated for 8 h with 100 nM dex or ethanol. mRNA levels for the indicated GR target genes were measured by RT-qPCR and normalized to β-actin mRNA levels.
FIGS. 54A, 54B, and 54C highlight the GR Target genes that require G9a and GLP as coactivators.

EHMT2 phosphorylation = assay: Phosphorylation of EHMT2 in NALM-6 cells (pan ph-T immunoprecipitation, EHMT2 immunoblot); type: cell-based, human; conditions: NALM-6, 0.75 μM ZM447439, 24 h
Experimental: Cells were treated as indicated, and cell extracts were prepared in RIPA buffer ([…] Tris-HCl, pH 8, 150 mM NaCL, 1 mM EDTA, 1% NP-40, and 0.25% deoxycholate) supplemented with protease inhibitor tablets (Roche Molecular Biochemicals) and phosphatase inhibitors (1 mM NaF, 1 mM Na3VO4, and 1 mM β-glycerophosphate). Protein extracts were incubated overnight at 4° C. with shaking with 1 μg of antibodies against EHMT2 (Sigma G6919), EHMT1 (Millipore 09-078), or pan phospho-threonine (Millipore AB1607). Protein A/G plus agarose beads (Santa Cruz sc-2003) were added, and the mixture was incubated 2 h at 4° C. The immunoprecipitates were separated on SDS-PAGE. […]
FIGS. 48A, 48B, 48C, 48D, 48E, and 48F show the effect of AURKB inhibitors on EHMT2 phosphorylation and dex-induced cell death. […] In each condition, the value measured with dex was normalized to the fluorescence value measured with ethanol. Percentage of survival is shown as the mean±SEM of 4 independent experiments and p-values for individual dex concentrations were calculated using a paired t-test. *p≤0.05, **p≤0.01, * * *p≤0.001. […] EC50s were calculated as the concentration at which half the cells remained alive, compare to vehicle controls. Error bars depict the SEM of 4 independent experiments and p-value was calculated to compare ZM treatment to DMSO using a paired t-test **p≤0.01, * * *p≤0.001. […]

Compound	dex-induced expression of FKBPS (independent of G9a and GLP) [1]	dex-induced expression of G9a/GLP-dependent GR target genes (TXNIP, GILZ, and NFKBIA) [1]	phosphorylation of EHMT2 (EHMT2 phosphorylation)
Clc1ccc(N/N=C(\c2ccccc2)c2ccccn2)nc1 [JIB-04, 5-chloro-N-[(E)-[phenyl(pyridin-2-yl)methylidene]amino]pyridin-2-amine]	no effect	enhanced	
COc1cc2c(Nc3ccc(NC(=O)c4ccccc4)cc3)ncnc2cc1OCCCN1CCOCC1 [ZM447439, N-[4-[[6-methoxy-7-(3-morpholin-4-ylpropoxy)quinazolin-4-yl]amino]phenyl]benzamide]			reduced
